Laboratory results taken from ChEMBL document CHEMBL3137667, “[Drug-induced liver injury; fourteenth updated edition of the bibliographic database of liver injuries and related drugs]” (Gastroenterol Clin Biol, 2004).

Tests used:
[1] = human
[2] = human, serum
[3] = human; remark: listed apart in the source
[4] = Highest frequency of moderate liver toxicity observed during clinical trials, expressed as a percentage. [column '% BIOL' in source]; settings: human
[5] = Highest frequency of acute liver toxicity observed during clinical trials, expressed as a percentage. [column '% AIGUE' in source]; settings: human
[6] = Proposed mechanism(s) of liver damage. [column 'MEC' in source]; settings: human
[7] = Presence of at least one case with successful reintroduction. [column 'REINT' in source]; settings: human
[8] = human, serum; remark: listed apart in the source
[9] = human; remark: listed apart in the source
[10] = human; remark: listed apart in the source
[11] = human; remark: listed apart in the source
[12] = Comments (NB not yet translated). [column 'COMMENTAIRES' in source]; settings: human
[13] = human; remark: listed apart in the source
[14] = human; remark: listed apart in the source
[15] = human; remark: listed apart in the source
[16] = human; remark: listed apart in the source
[17] = Times to onset, minimal and maximal, observed in the indexed observations. [column 'DELAI' in source]; settings: human
[18] = human, serum, 4383 h
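For Hepatotoxicity (association with vascular disease) in this document: count of indexed literature references reporting vascular liver injury in humans, e.g. peliosis hepatitis, hepatic veno-occlusive disease or Budd-Chiari syndrome.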
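For Hepatotoxicity (benign tumour) in this document: value is a count of indexed literature references citing a benign tumour confirmed by histopathology.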
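For Hepatotoxicity (choleostasis) in this document: human cholestatic liver injury, shown by histopathology or by peak ALT or AST elevation over alkaline phosphatase ratio below 2, value counts indexed literature reports.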
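For Hepatotoxicity (chronic liver disease) in this document: chronic liver injury confirmed by histopathology or persistently raised serum aminotransferase activity beyond 6 months, value given as the count of indexed literature references.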
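For Hepatotoxicity (cirrhosis) in this document: value is a count of indexed literature references reporting cirrhosis confirmed by histopathology.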
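For Hepatotoxicity (cytolytic) in this document: human cytolytic liver injury, shown by histopathology or by a ratio above 5 of peak ALT or AST elevation to alkaline phosphatase elevation, value counts indexed references.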
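For Hepatotoxicity (granulomatous hepatitis) in this document: value is a count of indexed literature references reporting granulomatous liver disease confirmed by histopathology.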
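For Hepatotoxicity (malignant tumour) in this document: malignant tumour confirmed by histopathology, value gives the count of indexed literature references reporting it.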
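For Hepatotoxicity (severe hepatitis) in this document: human clinical data: severe hepatitis, meaning potentially life-threatening liver failure or clinically observed cases, the value counts how many indexed literature references report it.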
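For Hepatotoxicity (steatosis) in this document: steatosis confirmed by histopathology, value is the count of indexed references.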

SMILES | Hepatotoxicity (cytolytic) [1] | Hepatotoxicity (acute) [2] | Hepatotoxicity (cirrhosis) [3] | Hepatotoxicity (moderate) [4] [%] | Hepatotoxicity (acute) [5] [%] | Hepatotoxicity (mechanism) [6] | Hepatotoxicity (successful reintroduction) [7] | Hepatotoxicity (moderate) [8] | Hepatotoxicity (choleostasis) [9] | Hepatotoxicity (malignant tumour) [10] | Hepatotoxicity (association with vascular disease) [11] | Hepatotoxicity (comment) [12] | Hepatotoxicity (severe hepatitis) [13] | Hepatotoxicity (benign tumour) [14] | Hepatotoxicity (steatosis) [15] | Hepatotoxicity (granulomatous hepatitis) [16] | Hepatotoxicity (time to onset) [17] | Hepatotoxicity (chronic liver disease) [18] | Hepatotoxicity (moderate) ([4]; Liver) [%] | Hepatotoxicity (acute) ([5]; Liver) [%] | further results
CC[C@H]1OC(=O)[C@H](C)[C@@H](O[C@H]2C[C@@](C)(OC)[C@@H](O)[C@H](C)O2)[C@H](C)[C@@H](O[C@@H]2O[C@H](C)C[C@H](N(C)C)[C@H]2O)[C@](C)(O)C[C@@H](C)C(=O)[C@H](C)[C@@H](O)[C@]1(C)O [ERYTHROMYCIN] | 20 | 72 | 0 | 38 | 3 | Allergic, Toxic | yes | 19 | 55 | 0 | 0 | CHOLANGITE #CBP RC/AMOXICILLINE/TROLEANDOMYCINE | 1 | 0 | 0 | 0 | 12 hours - 5 weeks | 0 | – | – | –
CCCCOCC(CN1C(=O)NC(=O)C(CC)(c2ccccc2)C1=O)OC(N)=O (stereo not drawn) [FEBARBAMATE] | 9 | 9 | 0 | 0 | 0 | Allergic | yes | 2 | 1 | 0 | 0 | AC_ANTI-N/-LM I/PAROXETINE | 5 | 0 | 1 | 1 | 8 days - 15 months | 0 | – | – | –
CC(C)OC(=O)C(C)(C)Oc1ccc(C(=O)c2ccc(Cl)cc2)cc1 [FENOFIBRATE] | 11 | 13 | 1 | – | – | Allergic | yes | 27 | 5 | 0 | 0 | RC/CLOFIBRATE CHOLESTASE_PROLONGEE DUCTOPENIE AC_ANTI-ML/-N | – | 0 | 0 | 0 | 1 day - 3 years | 4 | 52.9 | 2.7 | Hepatotoxicity (severe hepatitis) ([13]; Liver): 0
O=C(OCC(O)CO)c1ccccc1Nc1ccnc2cc(Cl)ccc12 (stereo not drawn) [GLAFENINE] | – | 14 | 5 | – | – | – | yes | 2 | – | 0 | 0 | LITHIASE | – | 0 | 0 | – | 2 days - 8 months | 5 | 0 | 0 | Hepatotoxicity (cytolytic) ([1]; Liver): 12; Hepatotoxicity (mechanism) ([6]; Liver): Allergic; Hepatotoxicity (choleostasis) ([9]; Liver): 2; Hepatotoxicity (severe hepatitis) ([13]; Liver): 7; Hepatotoxicity (granulomatous hepatitis) ([16]; Liver): 0
COc1ccc(Cl)cc1C(=O)NCCc1ccc(S(=O)(=O)NC(=O)NC2CCCCC2)cc1 [GLYBURIDE] | 2 | 14 | 1 | 6.7 | 0 | Allergic, Dose-dependant | yes | 7 | 10 | 0 | 0 | CHOLANGITE DUCTOPENIE | 0 | 0 | 0 | 2 | 2 weeks - 7 years | 0 | – | – | –
NNc1nncc2ccccc12 [HYDRALAZINE] | – | 9 | 0 | – | – | – | yes | 4 | – | 0 | 0 | CHOLANGITE AC_ANTI-N | – | 0 | 0 | – | 2 days - 3 years | 3 | 0 | 0 | Hepatotoxicity (cytolytic) ([1]; Liver): 6; Hepatotoxicity (mechanism) ([6]; Liver): Allergic, Toxic; Hepatotoxicity (choleostasis) ([9]; Liver): 3; Hepatotoxicity (severe hepatitis) ([13]; Liver): 2; Hepatotoxicity (granulomatous hepatitis) ([16]; Liver): 6
CC(C)Cc1ccc(C(C)C(=O)O)cc1 (stereo not drawn) [IBUPROFEN] | 14 | 20 | 1 | – | – | Allergic, Overdose | yes | 10 | 6 | 0 | 0 | RC/DICLOFENAC CHOLESTASE_PROLONGEE DUCTOPENIE REACTIVATION_HSV6 | – | 0 | 1 | 0 | 1 day - 4 months | 1 | 16 | 0 | Hepatotoxicity (severe hepatitis) ([13]; Liver): 6
Sc1ncnc2nc[nH]c12 [MERCAPTOPURINE ANHYDROUS] | – | 30 | 0 | – | – | – | yes | 13 | – | 3 | 2 | I/DOXORUBICINE CHOLANGITE | – | 0 | 0 | – | 2 days - 2 years | 0 | 53 | 4.9 | Hepatotoxicity (cytolytic) ([1]; Liver): 15; Hepatotoxicity (mechanism) ([6]; Liver): Dose-dependant; Hepatotoxicity (choleostasis) ([9]; Liver): 15; Hepatotoxicity (severe hepatitis) ([13]; Liver): 5; Hepatotoxicity (granulomatous hepatitis) ([16]; Liver): 0
Nc1ccc(O)c(C(=O)O)c1 [MESALAMINE] | 5 | 12 | 0 | 21 | 1 | Allergic | yes | 14 | 3 | 0 | 0 | CHOLANGITE RC/SULFASALAZINE AC_ANTI-N/-ML | 1 | 0 | 0 | 1 | 1 day - 1 year | 1 | – | – | –
C[C@](N)(Cc1ccc(O)c(O)c1)C(=O)O [METHYLDOPA] | 16 | 24 | 7 | 35 | 1.3 | Allergic, Toxic | yes | 10 | 10 | 1 | 0 | AC_ANTI-N/-ML/-MF RC/ALLOPURINOL | 13 | 0 | 3 | 8 | 3 days - 12 years | 27 | – | – | –
CN1CCN2c3ccccc3Cc3ccccc3C2C1 (stereo not drawn) [MIANSERIN] | 3 | 5 | 0 | 26 | 0 | Dose-dependant, Reactive metabolite | yes | 3 | 5 | 0 | 0 | RC/NOMIFENSINE | 0 | 0 | 0 | 0 | 1 day - 1.8 years | 0 | – | – | –
